Assay results taken from patent US8173638B2 (Boehringer Ingelheim International GmbH, priority 2006, dated 2012).
Read-outs that look alike come from different tables or passages of the source.

Target: T1, human CB2R (Homo sapiens, UniProt P34972)
T1 construct: host or cells: CHO cells
Assay: CB2R mediated modulation of cAMP synthesis
Type: cell-based
Settings: for Emax: 0.5 h, read-out: Agonist Efficacy (%); for agonistic activity: found through the use of the described assays (CB2 agonists), qualitative statement
Procedure: B. CB2R Mediated Modulation of cAMP Synthesis:
CHO cells expressing human CB2R (Euroscreen) were plated at a density of 5000 cells per well in 384 well plates and incubated overnight at 37° C. After removing the media, the cells were treated with test compounds diluted in stimulation buffer containing 1 mM IBMX, 0.25% BSA and 10 uM Forskolin. The assay was incubated for 30 minutes at 37° C. Cells were lysed and the cAMP concentration was measured using DiscoverX-XS cAMP kit, following the manufacturer's protocol. In this setting, agonists will decrease forskolin induced production of cAMP while inverse agonists will further increase forskolin induced production of cAMP. EC50 of agonists were calculated as follows. The maximal amount of cAMP produced by forskolin compared to the level of cAMP inhibited by 1 uM CP55940 is defined as 100%. […] Data was analyzed using a four-parameter logistic model. (Model 205 of XLfit 4.0).

[1] = CHO cells expressing human CB2R, cAMP inhibited by 1 uM CP55940 defined as 100%

T1 sequence (P34972 whole entry): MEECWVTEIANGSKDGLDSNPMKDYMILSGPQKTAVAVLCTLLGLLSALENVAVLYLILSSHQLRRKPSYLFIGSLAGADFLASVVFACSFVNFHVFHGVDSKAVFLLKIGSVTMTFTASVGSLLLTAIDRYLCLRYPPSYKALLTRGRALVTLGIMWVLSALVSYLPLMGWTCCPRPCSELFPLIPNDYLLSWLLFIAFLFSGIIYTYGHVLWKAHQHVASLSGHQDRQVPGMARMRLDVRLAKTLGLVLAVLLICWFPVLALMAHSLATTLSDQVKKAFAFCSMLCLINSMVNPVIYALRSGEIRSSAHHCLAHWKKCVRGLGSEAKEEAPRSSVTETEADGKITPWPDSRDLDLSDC

| SMILES | agonistic activity | further results |
| --- | --- | --- |
| CCC(C)c1cc(NC(=O)N2CCCN(C(=O)C3CCOCC3)CC2)on1 (stereo not drawn) [Compound 193, 4-(Tetrahydro-pyran-4-carbonyl)-[1,4]diazepane-1-carboxylic acid (3-sec-butyl-isoxazol-5-yl)-amide] |  | EC50: 41 nM; Emax (CHO): 106% |
| O=C(Nc1ccc(C(F)(F)F)cc1)N1CCCN(C(=O)C2CCCCC2)CC1 [Compound 128, 4-Cyclohexanecarbonyl-[1,4]diazepane-1-carboxylic acid (4-trifluoromethyl-phenyl)-amide] |  | Emax [1]: 107%; EC50 (read-out: hCB2 cAMP EC50): 71 nM |
| O=C(Nc1ccc2ccccc2c1)N1CCCN(C(=O)c2ccc(Cl)c(Cl)c2)CC1 [4-(3,4-Dichloro-benzoyl)-[1,4]diazepane-1-carboxylic acid naphthalen-2-ylamide] | agonistic activity |  |
| CS(=O)(=O)c1ccc(NC(=O)N2CCCN(C(=O)CCC3CCCC3)CC2)cc1 [4-(3-Cyclopentyl-propionyl)-[1,4]diazepane-1-carboxylic acid (4-methanesulfonyl-phenyl)-amide] | agonistic activity |  |
| CC(C)(C)c1cc(NC(=O)N2CCCN(C(=O)c3ccc(Cl)cc3)CC2)no1 [Compound 141, 4-(4-Chloro-benzoyl)-[1,4]diazepane-1-carboxylic acid (5-tert-butyl-isoxazol-3-yl)-amide] |  | Emax [1]: 101%; EC50 (read-out: hCB2 cAMP EC50): 11 nM |
| O=C(CC1CCCC1)N1CCCN(C(=O)Nc2ccc(C(F)(F)F)cc2)CC1 [4-(2-Cyclopentyl-acetyl)-[1,4]diazepane-1-carboxylic acid (4-trifluoromethyl-phenyl)-amide] | agonistic activity |  |
| CC(C)(C)c1ccc(NC(=O)N2CCCN(C(=O)CC3CCOCC3)CC2)cc1 [4-(2-Tetrahydro-pyran-4-yl-acetyl)-[1,4]diazepane-1-carboxylic acid (4-tert-butyl-phenyl)-amide] | agonistic activity |  |
| CCCCc1ccc(NC(=O)N2CCCN(C(=O)C3CCCCC3)CC2)cc1 | agonistic activity |  |
| CCC(C)c1ccc(NC(=O)N2CCCN(C(=O)CC3CCCC3)CC2)cc1 (stereo not drawn) [4-(2-Cyclopentyl-acetyl)-[1,4]diazepane-1-carboxylic acid (4-sec-butyl-phenyl)-amide] | agonistic activity |  |
| CC(C)c1ccc(NC(=O)N2CCCN(C(=O)CCC3CCCCC3)CC2)cc1 [Compound 56, 4-(3-Cyclohexyl-propionyl)-[1,4]diazepane-1-carboxylic acid (4-isopropyl-phenyl)-amide] |  | Emax [1]: 103%; EC50 (read-out: hCB2 cAMP EC50): 22 nM |
| CC(C)(C)c1ccc(NC(=O)N2CCCN(C(=O)c3cc(Cl)cc(Cl)c3)CC2)cc1 [4-(3,5-Dichloro-benzoyl)-[1,4]diazepane-1-carboxylic acid (4-tert-butyl-phenyl)-amide] | agonistic activity |  |
| CC(C)(C)c1cc(NC(=O)N2CCCN(C(=O)N3CCC(F)(F)CC3)CC2)no1 [Compound 206, 4-(4,4-Difluoro-piperidine-1-carbonyl)-[1,4]diazepane-1-carboxylic acid (5-tert-butyl-isoxazol-3-yl)-amide] |  | EC50: 16 nM; Emax (CHO): 105% |
| Cc1onc(NC(=O)N2CCCN(C(=O)C3CCOCC3)CC2)c1C | agonistic activity |  |
| CCCCCc1ccc(NC(=O)N2CCCN(C(=O)CCC3CCCC3)CC2)cc1 [4-(3-Cyclopentyl-propionyl)-[1,4]diazepane-1-carboxylic acid (4-pentyl-phenyl)-amide] | agonistic activity |  |
| O=C(CC1CCCC1)N1CCCN(C(=O)Nc2ccc(SC(F)(F)F)cc2)CC1 [4-(2-cyclopentyl-acetyl)-[1,4]diazepane-1-carboxylic acid (4-trifluoromethylsulfanyl-phenyl)-amide] | agonistic activity |  |
| CCC(C)c1cc(NC(=O)N2CCCN(C(=O)C3CCOCC3)CC2)on1 (stereo not drawn) [4-(Tetrahydro-pyran-4-carbonyl)-[1,4]diazepane-1-carboxylic acid (3-sec-butyl-isoxazol-5-yl)-amide] | agonistic activity |  |
| CC(C)(C)c1cc(NC(=O)N2CCCN(C(=O)CN3CCSCC3)CC2)no1 [4-(2-Thiomorpholin-4-yl-acetyl)-[1,4]diazepane-1-carboxylic acid (5-tert-butyl-isoxazol-3-yl)-amide] | agonistic activity |  |
| CC(C)(C)c1ccc(NC(=O)N2CCCN(C(=O)CN3CCSCC3)CC2)cc1 [4-(2-Thiomorpholin-4-yl-acetyl)-[1,4]diazepane-1-carboxylic acid (4-tert-butyl-phenyl)-amide] | agonistic activity |  |
| CC(C)(C)c1cc(NC(=O)N2CCCN(C(=O)N3CCOCC3)CC2)on1 [Compound 225, 4-(Morpholine-4-carbonyl)-[1,4]diazepane-1-carboxylic acid (3-tert-butyl-isoxazol-5-yl)-amide] |  | Emax [1]: 106%; EC50 (read-out: hCB2 cAMP EC50): 54 nM |
| CCC(C)c1ccc(NC(=O)N2CCCN(C(=O)C3CCOCC3)CC2)cc1 (stereo not drawn) [Compound 133, 4-(Tetrahydro-pyran-4-carbonyl)-[1,4]diazepane-1-carboxylic acid (4-sec-butyl-phenyl)-amide] |  | Emax [1]: 97%; EC50 (read-out: hCB2 cAMP EC50): 7.8 nM |
| CC(=O)N1CCc2ccc(NC(=O)N3CCCN(C(=O)CC4CCCC4)CC3)cc21 [4-(2-Cyclopentyl-acetyl)-[1,4]diazepane-1-carboxylic acid (1-acetyl-2,3-dihydro-1H-indol-6-yl)-amide] | agonistic activity |  |
| CC(=O)N1CCC(C(=O)N2CCCN(C(=O)Nc3cc(C(C)(C)C)on3)CC2)CC1 [4-(1-Acetyl-piperidine-4-carbonyl)-[1,4]diazepane-1-carboxylic acid (5-tert-butyl-isoxazol-3-yl)-amide] | agonistic activity |  |
| CCC(C)c1ccc(NC(=O)N2CCCN(C(=O)CC3CCCC3)CC2)cc1 (stereo not drawn) [Compound 52, 4-(2-Cyclopentyl-acetyl)-[1,4]diazepane-1-carboxylic acid (4-sec-butyl-phenyl)-amide] |  | EC50: 7.1 nM; Emax (CHO): 98% |

Second part, led by results:

| agonistic activity | SMILES | further results |
| --- | --- | --- |
| agonistic activity | CC(C)c1ccc(NC(=O)N2CCCN(C(=O)CCC(F)(F)F)CC2)cc1 [4-(4,4,4-Trifluoro-butyryl)-[1,4]diazepane-1-carboxylic acid (4-isopropyl-phenyl)-amide] |  |
| agonistic activity | CC(C)(C)c1ccc(NC(=O)N2CCCN(C(=O)C3CCCC3)CC2)cc1 [4-Cyclopentanecarbonyl-[1,4]diazepane-1-carboxylic acid (4-tert-butyl-phenyl)-amide] |  |
| agonistic activity | O=C(Nc1ccc(C(F)(F)F)cc1)N1CCCN(C(=O)c2ccc(F)cc2)CC1 [4-(4-Fluoro-benzoyl)-[1,4]diazepane-1-carboxylic acid (4-trifluoromethyl-phenyl)-amide] |  |
| agonistic activity | CC(C)(C)c1cc(NC(=O)N2CCCN(C(=O)N3CCSCC3)CC2)no1 [4-(Thiomorpholine-4-carbonyl)-[1,4]diazepane-1-carboxylic acid (5-tert-butyl-isoxazol-3-yl)-amide] |  |
| agonistic activity | CC(C)(C)c1ccc(NC(=O)N2CCCN(C(=O)c3ccc(C#N)cc3)CC2)cc1 [4-(4-Cyano-benzoyl)-[1,4]diazepane-1-carboxylic acid (4-tert-butyl-phenyl)-amide] |  |
| agonistic activity | CCCCc1ccc(NC(=O)N2CCCN(C(=O)c3ccccc3)CC2)cc1 [4-Benzoyl-[1,4]diazepane-1-carboxylic acid (4-butyl-phenyl)-amide] |  |
| agonistic activity | O=C(Nc1ccc2ccccc2c1)N1CCCN(C(=O)C2CCCCC2)CC1 [4-Cyclohexanecarbonyl-[1,4]diazepane-1-carboxylic acid naphthalen-2-ylamide] |  |
| agonistic activity | O=C(CCC(F)(F)F)N1CCCN(C(=O)Nc2ccc3ccccc3c2)CC1 [4-(4,4,4-Trifluoro-butyryl)-[1,4]diazepane-1-carboxylic acid naphthalen-2-ylamide] |  |
| agonistic activity | O=C(Nc1cc(C(F)(F)F)ccn1)N1CCCN(C(=O)C2CCOCC2)CC1 [4-(Tetrahydro-pyran-4-carbonyl)-[1,4]diazepane-1-carboxylic acid (4-trifluoromethyl-pyridin-2-yl)-amide] |  |
| agonistic activity | CC(C)(C)c1cnc(NC(=O)N2CCCN(C(=O)C3CCC(O)CC3)CC2)s1 (stereo not drawn) [4-(4-Hydroxy-cyclohexanecarbonyl)-[1,4]diazepane-1-carboxylic acid (5-tert-butyl-thiazol-2-yl)-amide] |  |
| agonistic activity | O=C(Nc1cc(Cl)cc(Cl)c1)N1CCCN(C(=O)C2CCCCC2)CC1 [4-Cyclohexanecarbonyl-[1,4]diazepane-1-carboxylic acid (3,5-dichloro-phenyl)-amide] |  |
| agonistic activity | O=C(Nc1nc(C2CC2)cs1)N1CCCN(C(=O)c2ccc(Cl)cc2)CC1 [4-(4-Chloro-benzoyl)-[1,4]diazepane-1-carboxylic acid (4-cyclopropyl-thiazol-2-yl)-amide] |  |
| agonistic activity | O=C(Nc1ccc(C(F)(F)F)cc1)N1CCCN(C(=O)c2ccccc2)CC1 [4-Benzoyl-[1,4]diazepane-1-carboxylic acid (4-trifluoromethyl-phenyl)-amide] |  |
| agonistic activity | CC(C)c1ccc(NC(=O)N2CCCN(C(=O)c3ccccn3)CC2)cc1 [4-(Pyridine-2-carbonyl)-[1,4]diazepane-1-carboxylic acid (4-isopropyl-phenyl)-amide] |  |
